Columns and labels:
[1] = test system: rice; test: Test C flooded paddy test; format: in vivo, Oryza sativa; conditions: Flood
In short: (§1)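 Visual injury scored against controls after 13 to 15 days in the greenhouse, using 0 (no effect) to 100 (complete control). Test compounds went straight into paddy water held 3 cm above the soil surface on 2-leaf-stage plants, with that flood depth maintained for the whole test.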

[2] = test system: kochia; test: Test C pre-/postemergence herbicide test; format: in vivo, Kochia scoparia; conditions: Postemergence
In short: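 Test compounds, formulated in a surfactant-containing non-phytotoxic solvent blend, are applied to seeded loam/sand soil (preemergence) and to young plants at the 1- to 4-leaf stage in peat-based medium (postemergence). Plants stay 13 to 15 days under greenhouse conditions, then are scored visually relative to controls, 0 = no effect, 100 = complete control.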

[3] = test system: galium; test: Test A postemergence herbicide test; format: in vivo, Galium aparine
In short: (§2)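 Visual injury rating, 0 (no effect) to 100 (complete control), versus untreated controls ~10 days after treatment. Postemergence spray applied at one- to two-leaf stage, plants 2–10 cm tall, potted in loam soil/sand. Greenhouse-held.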

[4] = test system: blackgrass; test: Test A postemergence herbicide test; format: in vivo, Alopecurus myosuroides
In short: as §2

[5] = test system: ducksalad; test: Test C flooded paddy test; format: in vivo, Heteranthera limosa; conditions: Flood
In short: as §1

[6] = test system: barnyardgrass; test: Test C flooded paddy test; format: in vivo, Echinochloa crus-galli; conditions: Flood
In short: as §1

[7] = test system: sedge, umbrella; test: Test C flooded paddy test; format: in vivo, Cyperus difformis; conditions: Flood
In short: as §1

[8] = test system: ragweed; test: Test A pre-/postemergence herbicide test; format: in vivo, Ambrosia elatior
In short: (§3)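 Planted in loam–sand blend; treated the same day preemergence by directed soil spray, while separately grown plants at one- to two-leaf stage got postemergence spray. Compared visually with untreated controls after approximately 10 days; 100 means complete control.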

[9] = test system: kochia; test: Test A pre-/postemergence herbicide test; format: in vivo, Kochia scoparia
In short: as §3

[10] = test system: ryegrass, Italian; test: Test A pre-/postemergence herbicide test; format: in vivo, Lolium multiflorum
In short: as §3

[11] = 125 g ai/ha, scale of 0 to 100 where 0 is no effect and 100 is complete control, 13 to 15 days
[12] = 250 g ai/ha, scale of 0 to 100 where 0 is no effect and 100 is complete control, 13 to 15 days
[13] = 16 g ai/ha, scale 0 to 100 (0 no effect, 100 complete control)
[14] = 31 g ai/ha, scale 0 to 100 (0 no effect, 100 complete control)
[15] = 62 g ai/ha, scale 0 (no effect) to 100 (complete control)
[16] = 125 g ai/ha, 0 to 100 scale, 0 is no effect, 100 is complete control
[17] = 500 g ai/ha, 0 to 100 scale (0 no effect, 100 complete control)
[18] = Postemergence, 125 g ai/ha, visual rating on 0 to 100 scale (0 no effect, 100 complete control), approx. 10 days
[19] = Postemergence, 500 g ai/ha, 0 to 100 scale (0 no effect, 100 complete control)
[20] = Preemergence, 125 g ai/ha, 0 to 100 scale where 0 is no effect and 100 is complete control
[21] = preemergence, 500 g ai/ha, 0 to 100 scale, 0 is no effect and 100 is complete control
[22] = Postemergence, 125 g ai/ha, 0 to 100 scale, 0 is no effect, 100 is complete control
[23] = 62 g ai/ha, scale of 0 to 100 where 0 is no effect and 100 is complete control, 13 to 15 days

Structure (SMILES) | Plant response rating, Rice [1, 11] | Plant response rating, Rice [1, 12] | Plant response rating, Rice ([1]; 500 g ai/ha, scale 0 to 100) | Plant response rating, Kochia [2, 13] | Plant response rating, Kochia [2, 14] | Plant response rating, Kochia [2, 15] | Plant response rating, Galium [3, 16] | Plant response rating, Galium [3, 17] | Plant response rating, Blackgrass [4, 16] | Plant response rating, Blackgrass [4, 17] | Plant response rating, Ducksalad [5, 11] | Plant response rating, Ducksalad [5, 12] | Plant response rating, Ducksalad ([5]; 500 g ai/ha, scale 0 to 100) | Plant response rating, Barnyardgrass [6, 11] | Plant response rating, Barnyardgrass [6, 12] | Plant response rating, Barnyardgrass ([6]; 500 g ai/ha, scale 0 to 100) | Plant response rating, Sedge, Umbrella [7, 11] | Plant response rating, Sedge, Umbrella [7, 12] | Plant response rating, Sedge, Umbrella ([7]; 500 g ai/ha, scale 0 to 100) | Plant response rating, Ragweed [8, 18] | further results
CN1CC(c2ccc(F)cc2)C(C(=O)Nc2cccc(F)c2F)C1=O (stereo not drawn) [Compound 271] | 0 | 0 | 0 | 0 | 0 | 10 | 40 | 70 | 50 | 60 | 70 | 100 | 100 | 40 | 45 | 75 | 0 | 0 | 0 | 0 | Plant response rating, Rice ([1]; 1000 g ai/ha, scale 0 to 100): 0; Plant response rating, Kochia ([2]; 8 g ai/ha, scale 0 to 100 (0 no effect, 100 complete control)): 0; Plant response rating, Ducksalad ([5]; 1000 g ai/ha, scale 0 to 100): 100; Plant response rating, Barnyardgrass ([6]; 1000 g ai/ha, scale 0 to 100): 80; Plant response rating, Sedge, Umbrella ([7]; 1000 g ai/ha, scale 0 to 100): 0; Plant response rating, Ragweed [8, 19]: 60; Plant response rating, Ragweed [8, 20]: 20; Plant response rating, Ragweed [8, 21]: 80; Plant response rating, Kochia [9, 22]: 60; Plant response rating, Kochia [9, 19]: 80; Plant response rating, Kochia [9, 20]: 50; Plant response rating, Kochia [9, 21]: 80; Plant response rating, Ryegrass, Italian [10, 18]: 0; Plant response rating, Ryegrass, Italian [10, 19]: 40; Plant response rating, Ryegrass, Italian [10, 20]: 0; Plant response rating, Ryegrass, Italian [10, 21]: 30
CN1CC(c2cccc(C(F)(F)F)c2)C(C(=O)Nc2ccccc2F)C1=O (stereo not drawn) [Compound 277] | 0 | 0 | 0 | 0 | 0 | 5 | 70 | 70 | 50 | 50 | 80 | 85 | 95 | 65 | 70 | 70 | 0 | 0 | 0 | 30 | Plant response rating, Rice [1, 23]: 0; Plant response rating, Kochia ([2]; 125 g ai/ha, scale 0 to 100 (0 no effect, 100 complete control)): 60; Plant response rating, Ducksalad [5, 23]: 65; Plant response rating, Barnyardgrass [6, 23]: 50; Plant response rating, Sedge, Umbrella [7, 23]: 0; Plant response rating, Ragweed [8, 19]: 30; Plant response rating, Ragweed [8, 20]: 20; Plant response rating, Ragweed [8, 21]: 20; Plant response rating, Kochia [9, 22]: 30; Plant response rating, Kochia [9, 19]: 30; Plant response rating, Kochia [9, 20]: 30; Plant response rating, Kochia [9, 21]: 60; Plant response rating, Ryegrass, Italian [10, 18]: 30; Plant response rating, Ryegrass, Italian [10, 19]: 40; Plant response rating, Ryegrass, Italian [10, 20]: 30; Plant response rating, Ryegrass, Italian [10, 21]: 30
